Common to all, as to assay: DTP human tumour cell line panel, 48 h
Assay [1] relates to MALME-3M melanoma.
Assay [2] has as its system OVCAR-5 ovarian.
In assay [3] the test system is SK-OV-3 ovarian.
Assay [4] has as its system HCC-2998 colon.
The test system of assay [5] is SF-539 CNS.
For assay [6], the system named is A549 NSCLC.
The subject of assay [7] is CAKI-1 renal.
Assay [8] relates to MOLT-4 leukemia.
The subject of assay [9] is NCI-H460 lung.
Assay [10] deals with IGROV1 ovarian.

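96-well plates; 48 h exposure; 5 concentrations. Endpoints by linear interpolation between flanking doses. Not reached: highest tested concentration assigned. Abbreviation: GI50, concentration required for 50% inhibition of growth. The concentration for full growth arrest is given as TGI.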 A value given as a limit tells only on which side of the number the result lay.

As usually defined, the GI50 is the concentration that inhibits growth by half. By TGI is commonly meant the concentration giving total growth inhibition. High values mean lower sensitivity of the cells, low ones greater sensitivity of the cells. Take `CCC1(NC(=O)c2cc(F)c(F)c(F)c2F)C(=O)NC(=O)N(C(C)C)C1=O` (stereo not given): the GI50 in assay [1] was 24.9 µM; in assay [2], greater than 100 µM; in assay [3], 23.2 µM; in assay [4], 1.94 µM; in assay [5], greater than 100 µM; in assay [6] it was 50.7 µM. Moreover, the GI50 was 29.8 µM in [7], 22.6 µM in assay [8], 49.7 µM in [9] and 10.4 µM in assay [10]. The TGI in assay [1] was 76.3 µM; in assay [2], greater than 100 µM; in assay [3], 51.1 µM; in [4] it was 3.97 µM; in assay [5], greater than 100 µM; in [6], greater than 100 µM. For the same compound, the TGI in assay [7] was greater than 100 µM; in assay [8], 78.8 µM; in assay [9], greater than 100 µM; in assay [10], 28.7 µM.
Regarding `CC1(C)CC([P+](c2ccccc2)(c2ccccc2)c2ccccc2)=NN1`, the GI50 in [1] is 3.43 µM; in assay [2] it was 18.7 µM; in assay [3], 11.7 µM; in assay [4], 2.79 µM; in [5], 6.13 µM; in [6], 5.1 µM. In addition, the GI50 in assay [7] was greater than 100 µM; in assay [8], 6.03 µM; in assay [9], 6.09 µM; in assay [10], 6.47 µM. Moreover, the TGI in [1] is greater than 100 µM; in assay [2] it was greater than 100 µM; in [3] it was 68.7 µM; in [4], greater than 100 µM; in [5], 97.3 µM; in [6] it was greater than 100 µM. The TGI in assay [7], in assay [8], in assay [9] and in assay [10] was greater than 100 µM throughout.
For the compound `CN(CC(=O)O)Cc1oc(CO)cc(=O)c1O`, the TGI in assay [1], in assay [2], in assay [3], in assay [4], in assay [5] and in [6] was greater than 100 µM each time. Besides, the TGI in assay [7], in assay [8], in assay [9] and in assay [10] was greater than 100 µM each time.
As for `Cc1cnccc1N=Nc1ccc(N(C)C)cc1`, the TGI in [1] was greater than 100 µM; in [2], greater than 100 µM; in assay [3] it was 48.2 µM; in assay [4] it was 49.6 µM; in [5], 69.2 µM; in [6], greater than 100 µM. In addition, the concentration for total growth inhibition (TGI) in [7] is greater than 100 µM; in assay [8], 79.5 µM; in [9], greater than 100 µM; in assay [10], 99.6 µM.
Turning to `FC(F)(F)c1cccc2c(SCCc3n[nH]c(=S)o3)ccnc12`, the GI50 is 44.5 µM in [1]; 97.6 µM in [2]; 92.7 µM in [3]; 37.9 µM in assay [4]; 45.9 µM in assay [5]; 51.6 µM in [6]. Further, the GI50 in assay [7] is 45.1 µM; in assay [8], 31.2 µM; in assay [9] it was 67.4 µM; in assay [10] it was 23.4 µM. Besides, the TGI in [1], in assay [2], in [3], in assay [4], in [5] and in assay [6] was greater than 100 µM in each case. Also, the TGI in assay [7], in assay [8], in assay [9] and in assay [10] was greater than 100 µM each time.
For `Nc1c(C(=O)N/N=C/c2ccc(-c3cc(Cl)c(Cl)cc3Cl)o2)cnn1-c1ccnc2c(C(F)(F)F)cccc12`, the GI50 in [1] was 2.66 µM; in [2] it was 5.29 µM; in assay [3], 4.81 µM; in assay [4] it was 3.64 µM; in assay [5] it was 5.48 µM; in assay [6], 4.3 µM. In addition, the GI50 is 4.21 µM in [7], 2.91 µM in assay [8], 3.73 µM in assay [9] and 4.53 µM in assay [10]. Moreover, the TGI in assay [1] is 10.6 µM; in assay [2], greater than 100 µM; in assay [3], 73 µM; in assay [4], greater than 100 µM; in [5], 38.7 µM; in assay [6], greater than 100 µM. The TGI is greater than 100 µM in assay [7], greater than 100 µM in assay [8], 16.9 µM in assay [9] and greater than 100 µM in [10].
For the compound `Nc1ccc(C(OC(=O)c2cc3ccccc3c(Cc3c(O)c(C(=O)OC(c4ccc(N)cc4)(c4ccc(N)cc4)c4ccc(N)cc4)cc4ccccc34)c2O)(c2ccc(N)cc2)c2ccc(N)cc2)cc1`, the GI50 in assay [1] is 1.94 µM; in assay [2] it was 2.7 µM; in assay [3], 2.87 µM; in [4] it was 1.83 µM; in [5] it was 0.362 µM; in assay [6], 0.774 µM. The GI50 in assay [7] is 13.6 µM; in assay [8] it was 4.33 µM; in assay [9], 0.728 µM; in [10] it was 9.89 µM. The TGI is 20.1 µM in assay [1]; 17.2 µM in assay [2]; 14.5 µM in [3]; 15.5 µM in assay [4]; 14.2 µM in assay [5]; 21.7 µM in assay [6]. Moreover, the TGI in [7] is greater than 100 µM; in [8] it was 86.1 µM; in [9], 7.24 µM; in assay [10] it was 85 µM.
Turning to `C[C@@H](COCCC(=O)N1CCN(c2ncc(C(F)(F)F)cn2)CC1)Nc1cn[nH]c(=O)c1C(F)(F)F`, the GI50 in assay [1] is greater than 100 µM; in assay [2] it was greater than 100 µM; in assay [3] it was 53 µM; in [4] it was greater than 100 µM; in [5], 16.4 µM; in assay [6] it was 45.7 µM. The GI50 in [7] is 14.1 µM; in [8], 22.9 µM; in [9], 18.6 µM; in assay [10] it was 42.2 µM. Also, the TGI in [1], in [2], in [3], in assay [4], in assay [5] and in assay [6] was greater than 100 µM throughout. The TGI in assay [7], in assay [8], in assay [9] and in [10] was greater than 100 µM throughout.

Source of the values: PubChem BioAssay (NCI).
